Columns and labels:
Type in all cases: cell-based
AT1R and CXCR2 [1] = target: T1, AT1R and CXCR2 (Homo sapiens, UniProt P25025+P30556); test: IP1 accumulation, HEK293 cells transiently-transfected with AT1R and CXCR2
T1 sequence (P30556 1-359): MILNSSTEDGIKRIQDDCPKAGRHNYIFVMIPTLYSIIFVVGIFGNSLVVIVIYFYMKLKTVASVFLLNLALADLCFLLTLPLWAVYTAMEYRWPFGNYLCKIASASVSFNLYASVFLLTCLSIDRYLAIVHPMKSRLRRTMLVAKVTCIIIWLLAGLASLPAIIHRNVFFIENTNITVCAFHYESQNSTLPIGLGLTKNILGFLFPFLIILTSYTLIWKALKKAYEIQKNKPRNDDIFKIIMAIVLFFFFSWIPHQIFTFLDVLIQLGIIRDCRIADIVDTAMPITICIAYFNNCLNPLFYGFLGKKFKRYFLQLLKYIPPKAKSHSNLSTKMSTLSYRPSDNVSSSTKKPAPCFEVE
T1 sequence (P25025 1-360): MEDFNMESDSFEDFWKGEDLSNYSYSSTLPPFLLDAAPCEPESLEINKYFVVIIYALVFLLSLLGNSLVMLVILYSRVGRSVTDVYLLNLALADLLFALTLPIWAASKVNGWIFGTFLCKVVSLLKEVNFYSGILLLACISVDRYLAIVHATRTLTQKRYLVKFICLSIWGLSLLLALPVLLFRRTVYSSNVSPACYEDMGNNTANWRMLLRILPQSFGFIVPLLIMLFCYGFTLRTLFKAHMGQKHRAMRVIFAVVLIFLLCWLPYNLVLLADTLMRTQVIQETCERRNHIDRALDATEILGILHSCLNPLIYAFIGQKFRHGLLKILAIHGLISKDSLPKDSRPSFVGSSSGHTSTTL
Procedure: Referring now to FIG. 2, Receptor activation of the phospholipase C pathway was detected through the measurement of D-myo-Inositol 1-Phosphate (IP1) by competitive immunoassay (IP-one—Gq Kit, Cisbio 62IPAPEC). Human Embryonic Kidney (HEK) 293 cells were transiently transfected in suspension with the AGTR1 vector (Origene RC212008) alone or co-transfected with the CXCR2 vector (Origene Cat RC207794) using FuGene™ HD reagent (Promega E2311). […] Agonists were prepared in a threefold serial dilution in stimulation buffer+0.1% BSA and added to the assay to give the appropriate final concentration-response curves, and co-stimulation at a single concentration as required. An IP1 standard curve was also constructed in 14 μl Stimulation Buffer+0.1% BSA. Incubations were conducted for 90 min at 37° C., 5% CO2, after which 3 μl IP1-d2 Reagent and 3 μl IP1 Tb Cryptate Antibody (Cisbio 62IPAPEC), in Lysis & Detection buffer, were added to each well for 60 min at room temperature. Plates were read on a HTRF® compatible reader (PHERAstar™, BMG Labtech), using 337 nm excitation and collecting donor/acceptor emission at 620 nm and 665 nm. A standard curve was plotted to interpolate unknown HTRF ratio (665/620×10 000) measurements as IP1 concentration (nM). […]

AT1R and CXCR2 [2] = target: T1, AT1R and CXCR2; test: IP1 accumulation, HEK293 cells stably-expressing CXCR2 and transiently-transfected with AT1R
CXCR2 = target: T2, CXCR2 (Homo sapiens, UniProt P25025); test: BRET trafficking of CXCR2/Rluc8 to Venus/Kras or Venus/Rab markers, absence of AT1R; settings: 100 nM CXCL8, 1 μM AngII
T2 sequence (P25025 1-360): T1 sequence (P25025 1-360)
Procedure: HEK293FT cells were seeded in 6-well plates at a density of approximately 700,000 cells/well and maintained at 37° C., 5% CO2 in Complete Media (DMEM containing 0.3 mg/ml glutamine, 100 IU/ml penicillin and 100 μg/ml streptomycin (Gibco/Thermo Fisher)) supplemented with 10% fetal calf serum (FCS; Bovogen). Transient transfections were carried out 24 h after seeding using FuGene6™ (Promega) according to manufacturer instructions. 24 h post-transfection, cells were washed with PBS, detached using 0.05% trypsin/0.53 mM EDTA, resuspended in HEPES-buffered phenol red free Complete Media containing 5% FCS and added to a poly-L-lysine-coated white 96-well microplate (Greiner Bio-One). 48 h post-transfection, bioluminescence resonance energy transfer (BRET) assays were carried out following pre-incubation of cells with EnduRen™ (Promega) at a final concentration of 30 μM, at 37° C., 5% CO2 for 2 h. BRET measurements were taken at 37° C. using the LUMlstar™ or CLARIOstar™ (BMG Labtech). Filtered light emissions were measured for 1 s in each of the ‘donor wavelength window’ (460-490 nm for LUMlstar™ or 410-490 nm for CLARIOstar™) and ‘acceptor wavelength window’ (520-550 nm for LUMlstar™ or 520-620 nm for CLARIOstar™).
The BRET signal observed between interacting proteins is normalized by subtracting the background BRET ratio. This can be done in one of two ways (see Pfleger et al. (2006) Cell Signal 18:1664-1670; Pfleger et al. (2006) Nat Protoc 1:336-344): 1) the ratio of the 520-550 nm or 520-620 nm emission over the 460-490 nm or 410-490 nm emission for a cell sample containing only the donor construct is subtracted from the same ratio for a sample containing the interacting acceptor and donor fusion proteins; 2) the ratio of the 520-550 nm or 520-620 nm emission over the 460-490 nm or 410-490 nm emission for a cell sample treated with vehicle is subtracted from the same ratio for a second aliquot of the same cell sample treated with ligand. In the following examples, the second calculation will be used and the signal is described as ligand-induced BRET′. Furthermore, for data shown in FIGS. 4 to 20, all data points in a given set are corrected relative to the final data point prior to agonist treatment, which is fixed to zero. In keys on FIGS. 7 to 20, “>” means “followed by after 50 minutes”, with agonists added at time zero on the x-axes.
Referring now to FIG. 3 (published in Tiulpakov et al (2016) Mol. Endocrinol. 30, 889-904), the proximity of Rluc8-tagged receptors to Venus-tagged Kras plasma membrane marker, or Venus-tagged Rabs specific for distinct subcellular locations, is monitored in live cells and in real-time using BRET. The Rab markers are: Venus/Rab5 (5) for early endosomes; Venus/Rab4 (4) for early endosome recycling; Venus/Rab11a (11) for recycling endosomes; Venus/Rab7 (7) for late endosomes/lysosomes; Venus/Rab9 (9) for late endosome trafficking to the trans-Golgi network; Venus/Rab1 (1) for endoplasmic reticulum trafficking to the cis-Golgi; Venus/Rab6 (6) for Golgi apparatus and trans-Golgi network; or Venus/Rab8 (8) for trans-Golgi network to plasma membrane.

Angiotensin II [AngII]
Rmax, IP1 accumulation (AT1R and CXCR2 [1]): 567 nM
Rmax, IP1 accumulation (AT1R and CXCR2 [2]): 209 nM
proximity of CXCR2/Rluc8 to Venus/Rab6 (BRET) (CXCR2; Golgi apparatus to trans-Golgi network, FIG. 4I): no effect
proximity of CXCR2/Rluc8 to Venus/Rab4 (BRET) (CXCR2; early endosome recycling, FIG. 4E): no effect
proximity of CXCR2/Rluc8 to Venus/Rab5 (BRET) (CXCR2; early endosomes, FIG. 4G): no effect
proximity of CXCR2/Rluc8 to Venus/Rab1 (BRET) (CXCR2; endoplasmic reticulum to cis-Golgi, FIG. 4C): no effect
proximity of CXCR2/Rluc8 to Venus/Rab9 (BRET) (CXCR2; late endosome to trans-Golgi network, FIG. 4O): no effect
proximity of CXCR2/Rluc8 to Venus/Rab7 (BRET) (CXCR2; late endosomes/lysosomes, FIG. 4K): no effect
proximity of CXCR2/Rluc8 to Venus/Kras (BRET) (CXCR2; plasma membrane marker, FIG. 4A): no effect
proximity of CXCR2/Rluc8 to Venus/Rab11a (BRET) (CXCR2; recycling endosomes, FIG. 4Q): no effect
proximity of CXCR2/Rluc8 to Venus/Rab8 (BRET) (CXCR2; trans-Golgi network to plasma membrane, FIG. 4M): no effect
